In series [1] the test system is Oryctolagus sp.
The subject of series [2] is Anas platyrhynchos. The note with it: oral.
The test system of series [3] is Rattus norvegicus.
The test system of series [4] is Gallus gallus. To be noted: for LEL: subchronic, oral, diet, no effects.
Series [5] relates to Canidae.
Series [6] concerns Colinus virginianus. The note with it: for LD50: acute, oral, mortality.
The test system of series [7] is Oncorhynchus mykiss. To be noted: acute; duration: 96 hours; mortality.
Where [8] appears, read: subchronic, duration: 90 days, oral.
Setting [9] is: chronic, duration: 2 years, M/F, clinical chemistry.
Setting [10] is: reproduction developmental, reproduction.
Setting [11] is: subchronic, duration: 90 days, oral, diet, Wistar, no effects.
[12] abbreviates: chronic, duration: 1 years, oral, Dog Other, clinical chemistry.

The structures appear in SMILES notation. Values after ≈ are worked out from the molar mass of the structure shown.

Take `NC(Cc1ncn[nH]1)C(=O)O` (configuration not stated) [1,2,4-Triazole-3-alanine]: the NOAEL in series [1] (developmental, development) is 30 mg/kg-day; in series [3] (chronic), 100 mg/kg-day; in series [3] (developmental, development), 100 mg/kg-day. In addition, the LC50 in series [2] (short-term, duration: 5 days, feed, mortality) is more than 1340 mg/kg-day. The compound also came in with an LD50 in series [3] (acute, oral, mortality) of more than 5000 mg/kg-day. In series [3] (subchronic, duration: 13 weeks, oral, diet), `CSCSSC` [2,3,5-Trithiahexane] had an NOEL of 0.3 mg/kg-day. Besides, the NOAEL in series [3] (setting [8]) turned out to be 0.23 mg/kg-day and the NOAEL under setting [8] was determined as 0.23 mg/kg-day. `Cc1cc(SC(=O)CC(C)C)c(C)o1` [2,5-Dimethyl-3-thioisovalerylfuran] registered an NOAEL in series [3] (subchronic, duration: 90 days) of 0.73 mg/kg-day and an NOAEL (subchronic, duration: 90 days) of 0.73 mg/kg-day. In turn, `CCc1occc(=O)c1O` [2-Ethyl-3-hydroxy-4-pyrone] had an NOAEL (repeat dose other) of 200 mg/kg-day. `c1csc(SSc2cccs2)c1` [2-Thienyl disulfide]: the NOAEL in series [3] (subchronic, duration: 90 days) is 0.29 mg/kg-day and the NOAEL (repeat dose other) came to 0.29 mg/kg-day. With `CCOC(=O)/C(C)=C/C=C/C(C)=C/C=C/C=C(C)/C=C/C=C(C)/C=C/C1=C(C)CCCC1(C)C` [8'-Apo-beta, psi-carotenoid acid, ethyl ester], the NOAEL in series [3] (subchronic, histopathology: nonneoplastic) stood at 3 mg/kg-day. The same compound came in with an LEL in series [4] (duration: 56 days, F) of 80 mg/kg-day. For the compound `N#Cc1cc(Br)c(O)c(Br)c1` [Bromoxynil], the NOAEL in series [5] (chronic, duration: 1 years, oral, Dog Other, organ weight) is 0.3 mg/kg-day; in series [3] (developmental, development), 4 mg/kg-day. Take `O=c1ccc2ccccc2o1` [Coumarin]: the NOAEL in series [5] (chronic, duration: 2 years, Dog Other, histopathology: nonneoplastic) turned out to be 10 mg/kg-day. Compound `COc1cc(/C=C/C(=O)CC(=O)/C=C/c2ccc(O)c(OC)c2)ccc1O` [Curcumin] had an NOAEL in series [3] (reproduction developmental, duration: 24 weeks, oral, diet, M/F, body weight) not below 250 mg/kg-day. For `ClC1=C(Cl)[C@]2(Cl)[C@@H]3[C@@H]4C[C@@H]([C@H]5O[C@@H]45)[C@@H]3[C@@]1(Cl)C2(Cl)Cl` [Dieldrin], the LD50 in series [3] (acute, oral, mortality) is 25 mg/kg-day. Turning to `O=C(NC(=O)c1c(F)cccc1F)Nc1ccc(Cl)cc1` [Diflubenzuron], in series [5] (chronic, duration: 1 years, oral, Dog Other, hematological), the no observed adverse effect level (NOAEL) turned out to be 10 mg/kg-day. Besides, the LD50 in series [3] (acute, dermal, mortality) was more than 2000 mg/kg; in series [3] (acute, oral, mortality), more than 4640 mg/kg. In series [3] (acute, duration: 4 hours, inhalation, mortality), this compound came in with an LC50 of more than 2.5 µg/mL. As to `COc1cc(COC(=O)CCCCCCC(C)C)ccc1O` [Dihydrocapsiate], the NOAEL in series [3] (chronic, duration: 26 weeks, oral, gavage, M/F, Sprague-Dawley, histopathology: nonneoplastic) amounted to 300 mg/kg-day; in series [3] (subchronic, duration: 13 weeks, oral, gavage, M/F, Sprague-Dawley, clinical chemistry) it was 300 mg/kg-day; in series [3] (subchronic, duration: 13 weeks, oral, gavage, M/F, Sprague-Dawley, organ weight) it was 300 mg/kg-day. As for `CC(C)CCCCCCCOC(=O)c1ccccc1C(=O)OCCCCCCCC(C)C` [Diisodecyl phthalate], the NOAEL in series [5] (subchronic, duration: 13 weeks, Dog Other, histopathology: nonneoplastic) was 15 mg/kg-day. Compound `CC(C)CCCCCCOC(=O)C1CCCCC1C(=O)OCCCCCCC(C)C` (configuration not stated) [Diisononyl cyclohexane-1,2-dicarboxylate] displayed an NOAEL in series [3] (subchronic, duration: 13 weeks, M/F, Wistar, clinical chemistry) of 100 mg/kg-day.

The compound `c1ccc(Oc2ccccc2)cc1` [Diphenyl oxide] had a no observed adverse effect level (NOAEL) in series [3] (subchronic, duration: 90 days, oral, body weight) of 15 mg/kg-day.

As to `Fc1ccc([C@@]2(Cn3cncn3)O[C@@H]2c2ccccc2Cl)cc1` [Epoxiconazole], the LD50 in series [6] (diet) is more than 907 mg/kg; in series [6], more than 2000 mg/kg; in series [3] (acute, mortality), 3160 mg/kg. The compound further returned an NOEL in series [6] (reproduction developmental) of 1 mg/kg-day. The compound further returned an NOAEL in series [3] (reproduction developmental) of 2.3 mg/kg-day. On to `CCOC(=O)C1OC1(C)c1ccc(C)cc1` (configuration not stated) [Ethyl 3-methyl-3-(4-methylphenyl)oxirane-2-carboxylate], for which the NOAEL in series [3] (setting [9]) worked out at 35 mg/kg-day. Still for that read-out and setting: in the case of `CCOC(=O)C1OC1(C)c1ccccc1` (configuration not stated) [Ethyl methylphenylglycidate] it was 35 mg/kg-day. With `O=S(=O)([O-])c1ccc(N=Nc2c(O)ccc3cc(S(=O)(=O)[O-])ccc23)cc1.[Na+].[Na+]` [FD&C Yellow 6], the NOAEL in series [5] (chronic, duration: 7 years, oral, F, Dog Other, no effects) amounted to 500 mg/kg-day; in series [3] (reproduction developmental, duration: 28 days, oral, diet, body weight), 375 mg/kg-day; in series [3] (subchronic, duration: 90 days, oral, diet, M/F, histopathology: nonneoplastic) it was 500 mg/kg-day. In turn, `NC=O` [Formamide] registered an NOAEL in series [1] (reproduction developmental, duration: 13 days, oral, gavage, F, New Zealand, reproduction) of 34 mg/kg-day. `CCOP(=O)=O.CCOP(=O)=O.CCOP(=O)=O.[Al+3]` [Fosetyl aluminum]: in series [6] (setting [10]), the NOEC turned out to be 216 mg/kg-day. Also, the NOAEL in series [3] (short-term, histopathology: nonneoplastic) was 500 mg/kg-day. In series [3] (subchronic, duration: 90 days, no effects), `Cc1cc(SSc2cc(C)oc2C)c(C)o1` [Furan, 3,3'-dithiobis[2,5-dimethyl-] gave an NOAEL of 0.29 mg/kg-day.

Compound `Cc1occc1SSCc1ccco1` [Furfuryl 2-methyl-3-furyl disulfide] showed an NOAEL in series [3] (setting [11]) of 0.45 mg/kg-day.

With `CCCOC(=O)c1cc(O)c(O)c(O)c1` [Gallic acid n-propyl ester], the no observed adverse effect level (NOAEL) is 1910 mg/kg-day in series [3] (subchronic, duration: 13 weeks, oral, diet, M/F, clinical chemistry) and 135 mg/kg-day in series [3] (subchronic, duration: 90 days, oral, diet, M/F, hematological). For `CC/C=C/CCOC(=O)C(CC)CC` [Hex-3-enyl 2-ethylbutanoate], the no observed adverse effect level (NOAEL) in series [3] (reproduction developmental, duration: 10 days, oral, gavage, F, Sprague-Dawley, no effects) came out at 200 mg/kg-day; in series [3] (reproduction developmental, duration: 10 days, oral, gavage, F, no effects) it was 200 mg/kg-day. Compound `CC(C)C` [Isobutane] gave an NOAEC under setting [10] of 7.12 mg/m3.

As for `c1ccc2cnccc2c1` [Isoquinoline], in series [3] (subchronic, duration: 90 days, oral, gavage, M/F, Sprague-Dawley, no effects), the NOAEL was determined as 3 mg/kg-day.

In turn, `CC(O)C(=O)O` (configuration not stated) [Lactic acid] displayed an LEL in series [4] (duration: 42 days, Chicken) of 30000 mg/kg-day.

In series [3] (subchronic, duration: 90 days, oral, gavage, M/F, Wistar, hematological), `CC(=O)N[C@H]1[C@H](O[C@H]2[C@@H](O)[C@@H](CO)O[C@@H](O[C@@H]([C@H](O)[C@@H](O)C=O)[C@H](O)CO)[C@@H]2O)O[C@H](CO)[C@@H](O[C@@H]2O[C@H](CO)[C@H](O)[C@H](O)[C@H]2O)[C@@H]1O` [Lacto-N-neotetraose] gave an NOAEL of 2500 mg/kg-day. Turning to `COc1cc(CCCS(=O)(=O)[O-])ccc1OC(Cc1cccc(OC)c1O)CS(=O)(=O)[O-].[Ca+2]` (configuration not stated) [Lignosulfonic acid, calcium salt], in series [3] (setting [11]), the NOAEL is 2000 mg/kg-day.

`Cc1occc(=O)c1O` [Maltol]: the NOEL in series [3] (chronic, duration: 2 years, oral, diet) amounted to 100 mg/kg-day. For `COC(=O)CCSCc1ccco1` [Methyl 3-{[(furan-2-yl)methyl]sulfanyl}propanoate], in series [3] (subchronic, duration: 90 days, oral, diet, M/F, clinical chemistry), the NOAEL was 5.78 mg/kg-day.

On to `CBr` [Methyl bromide], for which the LD50 in series [6] was 73 mg/kg; in series [3] (acute, oral, mortality) it was 104 mg/kg. Further, the NOAEL in series [5] (chronic, duration: 1 years, oral, Dog Other) was found to be 0.27 mg/kg-day; in series [5] (setting [12]) it was 0.13 mg/kg-day; in series [3] (setting [10]), 90 mg/kg-day. In addition, the LC50 in series [7] came to 3.9 µg/mL. With `NC(=O)c1ccc[n+]([C@@H]2O[C@H](CO)[C@@H](O)[C@H]2O)c1.[Cl-]` [Nicotinamide riboside chloride], the NOAEL worked out at 300 mg/kg-day in series [5] (short-term, duration: 28 days, oral, gavage, M/F, Beagle, clinical chemistry); 325 mg/kg-day in series [3] (developmental, duration: 15 days, oral, gavage, F, Sprague-Dawley, development); 300 mg/kg-day in series [3] (subchronic, duration: 90 days, oral, gavage, M/F, Sprague-Dawley, body weight). In turn, `CC1=C[C@H]2O[C@@H]3[C@H](O)[C@@H](O)[C@](C)([C@@]2(CO)[C@H](O)C1=O)[C@]31CO1` [Nivalenol] came in with an LOAEL in series [4] (repeat dose other, organ weight) of 0.36 mg/kg-day.

`CC(C)(CO)[C@@H](O)C(=O)NCCC(=O)NCCSSCCNC(=O)CCNC(=O)[C@H](O)C(C)(C)CO` [Pantethine] had an NOAEL in series [3] (chronic, duration: 54 weeks, M/F, clinical chemistry) of 36 mg/kg-day.

For `CCN(CC)c1nc(C)cc(OP(=S)(OC)OC)n1` [Pirimiphos-methyl], the LC50 in series [7] is 0.2 µg/mL (≈ 0.655 µM). The NOAEL in series [3] (acute, clinical signs) stood at 15 mg/kg-day; in series [3] (chronic, duration: 2 years, clinical signs), 0.4 mg/kg-day; in series [3] (subchronic, duration: 13 weeks, clinical signs), 2.1 mg/kg-day.

As for `C/C=C/C=C/C(=O)[O-].[K+]` [Potassium (E,E)-hexa-2,4-dienoate], in series [3] (reproduction developmental, oral, gavage, M/F, Crj:CD, body weight), the no observed adverse effect level (NOAEL) came to 300 mg/kg-day. As to `CC1=NNC(=O)N(/N=C/c2cccnc2)C1` [Pymetrozine], the NOAEL in series [1] (reproduction developmental, histopathology: nonneoplastic) stood at 10 mg/kg-day; in series [5] (setting [12]) it was 0.57 mg/kg-day; in series [5] (subchronic, duration: 90 days, oral, diet, Beagle, organ weight), 3 mg/kg-day.

`Cc1cc2nc3c(=O)[nH]c(=O)nc-3n(C[C@H](O)[C@H](O)[C@H](O)COP(=O)([O-])O)c2cc1C.[Na+]` [Riboflavin 5'-(dihydrogen phosphate), sodium salt (1:1)]: in series [3] (subchronic, duration: 90 days, M/F, Wistar, no effects), the NOAEL stood at 160 mg/kg-day. For `CCS(=O)(=O)c1cccnc1S(=O)(=O)NC(=O)Nc1nc(OC)cc(OC)n1` [Rimsulfuron], the NOAEL amounted to 170 mg/kg-day in series [1] (reproduction developmental, mortality); 9.63 mg/kg-day in series [5] (subchronic, duration: 90 days, oral, Dog Other, body weight); 11.8 mg/kg-day in series [3] (chronic, duration: 2 years, oral, body weight); 165 mg/kg-day in series [3] (reproduction developmental, body weight). The LD50 in series [2] (acute, unspecified, mortality) was more than 2000 mg/kg-day; in series [3] (acute, oral, mortality), more than 5000 mg/kg-day. The compound also showed an NOEC in series [2] (reproductive, feed) of 117 mg/kg-day. With `CC1S[C@H](C)N[C@H](C)S1` (some centres not stated) [Thialdine], the NOAEL in series [3] (subchronic, duration: 90 days, oral, diet, M, histopathology: nonneoplastic) was found to be 9.3 mg/kg-day. `CN(C)C` [Trimethylamine] had an NOAEL in series [3] (subchronic, duration: 90 days) of 90 mg/kg-day. As to `O=P(c1ccccc1)(c1ccccc1)c1ccccc1` [Triphenylphosphine oxide], the NOEL in series [3] (subchronic, duration: 90 days, clinical chemistry) is 2 mg/kg-day.

Compound `CCCCC(CC)COC(=O)c1ccc(C(=O)OCC(CC)CCCC)c(C(=O)OCC(CC)CCCC)c1` (configuration not stated) [Tris(2-ethylhexyl) trimellitate] had an NOAEL in series [3] (subchronic, duration: 90 days, oral, diet, M/F, Sprague-Dawley, organ weight) of 225 mg/kg-day.

A word on the NOAEL: it is the highest tested level that showed no adverse finding. Usually LOAEL stands for the lowest dose or exposure tested at which an adverse effect was seen.

Source of the values: EPA's ToxValDB 9.5.
